Reference: article PMC11862924, “Phenylpyrazoles as Inhibitors of the m^6A RNA-Binding Protein YTHDF2” (JACS Au, 2025)

Legend:
[1] = MTT cytotoxicity assay, JAR; format: cell-based; conditions: human, JAR cells, triplicates, read-out: Cytotoxicity against cancer cells (IC50), JAR
Method: (§1) JAR, K562, and HCT116 cells were seeded in 96-well plates (3500 cells/well) and incubated for 8 h. The medium with different concentrations of compounds (100, 33.3, 11.1, 3.7, 1.2, and 0.4 μM) was added to the 96-well plates. Data were normalized to the medium with 0.1% DMSO. After incubation for 72 h, MTT solution (5 mg/mL, 20 μL) was added per well in a dark environment and incubated for 4 h. After the medium was discarded, DMSO (150 μL) was added per well, and the absorbance was measured at 492 nm by a plate reader (TECAN Spark).

[2] = system: K562; assay: CCK-8 proliferation assay, K562; format: cell-based; conditions: Homo sapiens, CCK-8 kit assay, triplicates, 72 h, read-out: Anti-proliferation activity against cancer cells (IC50), K562
Method: (§2) The JAR, K562, HCT116, and MOLM13 cells were seeded in 96-well plates (3000 cells/well). After being cultured overnight, compounds were added together with the DMSO treatment (0.1%) as a control. After 72 h, CCK-8 solution (Vazyme, A311) was added, and the cells were incubated at 37 °C for 4 h. The absorbance was measured at 450 nm using a plate reader (TECAN Spark).

[3] = molecular target: T1, YTHDF2 (residues 383–553) (Homo sapiens, UniProt Q9Y5A9); assay: Fluorescence polarization (FP) assay, YTHDF2–m6A RNA interaction; format: binding; conditions: 100 μM compound; YTHDF2 (residues 383–553, 20 nM), FAM-labeled m6A RNA probe 5 nM; average ± SD
T1 construct: A YTHDF2 YTH domain construct (residues 383–553) was subcloned to a pOPIN plasmid; made in house; host or cells: Escherichia coli BL21(DE3)
T1 sequence (Q9Y5A9 383-553): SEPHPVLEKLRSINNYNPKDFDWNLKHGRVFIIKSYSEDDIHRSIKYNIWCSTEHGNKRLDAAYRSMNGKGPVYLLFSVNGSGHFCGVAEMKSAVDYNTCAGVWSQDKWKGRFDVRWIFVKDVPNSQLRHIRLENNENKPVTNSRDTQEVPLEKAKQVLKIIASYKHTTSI
Method: The FP assay was performed in 384-well black plates (Corning no. 4514) with a total reaction volume of 15 μL. The final concentrations of protein (YTHDF2) and RNA were […], respectively, in a buffer containing 20 mM HEPES/KOH pH 7.5, 50 mM NaCl, 0.005% Tween 20, and 1 mM GSH (DTT). Compounds were incubated with protein, added FAM-m^6A RNA probe ([…](m6)ACUGUG) (purchased from IDT), and incubated at 4 °C for 30 min. The fluorescence polarization was measured using a plate reader (TECAN Spark) under an excitation wavelength of 485 nm and an emission wavelength of 535 nm with a bandwidth of 20 nm. […] The data were determined using GraphPad Prism 9.

[4] = system: HCT116; assay: CCK-8 proliferation assay, HCT116; format: cell-based; conditions: Homo sapiens, HCT-116; CCK-8 kit assay, triplicates, 72 h; read-out: Anti-proliferation activity against cancer cells (IC50), HCT116
Method: as §2

[5] = MTT cytotoxicity assay, K562; format: cell-based; conditions: human, K562 cells, triplicates, read-out: Cytotoxicity against cancer cells (IC50), K562
Method: as §1

[6] = system: JAR; assay: CCK-8 proliferation assay, JAR; format: cell-based; conditions: Homo sapiens; CCK-8 kit assay, triplicates, 72 h; read-out: Anti-proliferation activity against cancer cells (IC50), JAR
Method: as §2

[7] = MTT cytotoxicity assay, HCT116; format: cell-based; conditions: human, HCT116 cells, triplicates, read-out: Cytotoxicity against cancer cells (IC50), HCT116
Method: as §1

Compound	IC50 at 72 h [1]	IC50 [2]	inhibition at 100 µM [3]	IC50 [4]	IC50 at 72 h [5]	IC50 [6]	IC50 at 72 h [7]	inhibition at 100 μM in the FP assay [3]
COc1ccc(-n2cc(C(=O)c3ccccc3O)cn2)cn1 [CK-47]	> 50 µM	> 50 µM	25.5 ± 6.7%	> 50 µM	> 50 µM	> 50 µM	> 50 µM	
CCc1ccc(O)c(C(=O)c2cnn(-c3ccc(C(=O)O)cc3)c2)c1 [CK-65]	> 50 µM	43.9 ± 12 µM	35.4 ± 6.5%	> 50 µM	> 50 µM	45.6 ± 3.9 µM	> 50 µM	
NS(=O)(=O)c1ccc(-n2cc(C(=O)c3ccccc3O)cn2)cc1 [CK-49]	34.6 ± 5.9 µM	> 50 µM	1.7 ± 6.5%	> 50 µM	20.1 ± 12.3 µM	> 50 µM	29 ± 11.4 µM	
O=C(c1cnn(-c2ccc(OC(F)(F)F)cc2)c1)c1ccccc1O [CK-39]	46.2 ± 20.8 µM	25.6 ± 2.3 µM	6.9 ± 3.3%	38.9 ± 12.1 µM	19.8 ± 14.3 µM	31.2 ± 3.5 µM	26.4 ± 10.3 µM	
COC(=O)c1ccc(-n2cc(/C=C(\C#N)C(N)=O)cn2)cc1 [CK-94]			< 30%					26.6 ± 1.9%
Cc1ccc(C(=O)c2cnn(-c3ccc(C(=O)O)cc3)c2)c(O)c1 [CK-73]	> 50 µM	> 50 µM	26.3 ± 6.8%	> 50 µM	> 50 µM	> 50 µM	> 50 µM	
Cc1ccccc1-n1cc(C(=O)c2ccccc2O)cn1 [CK-45]	43.2 ± 15.5 µM	33.1 ± 5.7 µM	22.1 ± 6.6%	> 50 µM	21.9 ± 7.6 µM	42.8 ± 1.2 µM	26 ± 16.8 µM	
O=C(c1cnn(-c2ccccc2C(=O)O)c1)c1ccccc1O [CK-25]	> 50 µM	> 50 µM	22.1 ± 3.3%	> 50 µM	44.3 ± 13.1 µM	> 50 µM	> 50 µM	
Cc1ccc(-n2cc(C(=O)c3ccccc3O)cn2)cc1 [CK-51]	32.9 ± 14.2 µM	30.1 ± 6.3 µM	4.1 ± 3.7%	> 50 µM	20.2 ± 15.4 µM	> 50 µM	18.5 ± 9.4 µM	
O=C(O)c1cccc(-n2cc(C(=O)c3ccccc3O)cn2)c1 [CK-23, 3-(4-(2-hydroxybenzoyl)-1H-pyrazol-1-yl)benzoic acid]	45 ± 4.6 µM	> 50 µM		> 50 µM	21.5 ± 8.2 µM	> 50 µM	12.9 ± 2.5 µM	
N#Cc1ccc(-n2cc(C(=O)c3ccccc3O)cn2)cc1 [CK-38]	> 50 µM	> 50 µM	44.5 ± 7.1%	> 50 µM	43.2 ± 11.2 µM	> 50 µM	> 50 µM	
O=C(O)c1ccc(-n2cc(C(=O)c3ccc(Cl)cc3O)cn2)cc1 [CK-88]	25 ± 3.6 µM	48.2 ± 6.3 µM	28.8 ± 0.1%	> 50 µM	43.2 ± 10.4 µM	39 ± 3.2 µM	> 50 µM	
O=C(c1cnn(-c2ccccc2Cl)c1)c1ccccc1O [CK-44]	44.7 ± 14.4 µM	34.9 ± 3.5 µM	0.8 ± 7%	> 50 µM	32.3 ± 8.8 µM	41.2 ± 8.5 µM	18.5 ± 14.1 µM	
O=C(O)c1ccc(-n2cc(C(=O)c3cc(Br)ccc3O)cn2)cc1 [CK-60]	37.1 ± 11.4 µM	> 50 µM	63.6 ± 10.8%	> 50 µM	16.4 ± 8.2 µM	> 50 µM	12.5 ± 6.4 µM	
COc1cccc(O)c1C(=O)c1cnn(-c2ccc(C(=O)O)cc2)c1 [CK-85]	> 50 µM	> 50 µM	64.7 ± 8.4%	> 50 µM	> 50 µM	46.2 ± 2.6 µM	> 50 µM	
O=C(c1cnn(-c2ccc(Cl)cc2)c1)c1ccccc1O [CK-27]	> 50 µM	44.8 ± 8.7 µM	-5.2 ± 2.8%	45.6 ± 2.5 µM	> 50 µM	> 50 µM	> 50 µM	
O=C(O)c1ccc(-n2cc(C(=O)c3cc(F)cc(F)c3O)cn2)cc1 [CK-86]	> 50 µM	> 50 µM	54.6 ± 8.4%	> 50 µM	> 50 µM	> 50 µM	> 50 µM	
COc1ccc(-n2cc(C(=O)c3ccccc3O)cn2)cc1 [CK-40]	44.6 ± 12.3 µM	39.2 ± 6.1 µM	-4.8 ± 3.2%	> 50 µM	33.2 ± 5.8 µM	> 50 µM	25.5 ± 1.8 µM	
O=C(O)c1ccc(-n2cc(C(=O)c3cccc(Cl)c3O)cn2)cc1 [CK-96]	40.2 ± 12.7 µM	> 50 µM	52.2 ± 10.1%	> 50 µM	25.4 ± 7.8 µM	> 50 µM	20.6 ± 8.1 µM	
O=C(c1cnn(-c2ccc(C(F)(F)F)cc2)c1)c1ccccc1O [CK-48]	37 ± 12.7 µM	> 50 µM	17.5 ± 4.2%	> 50 µM	22.8 ± 2.5 µM	> 50 µM	43.1 ± 8.6 µM	
O=C(O)c1ccc(-n2cc(C(=O)c3ccc(F)cc3O)cn2)cc1 [CK-89]	> 50 µM	> 50 µM	44.4 ± 1.8%	> 50 µM	43.8 ± 22.7 µM	> 50 µM	32.8 ± 7.5 µM	
O=C(O)c1ccc(-n2cc(C(=O)c3ccccc3O)cn2)cc1 [CK-24]	> 50 µM	> 50 µM	5.2 ± 6.7%	> 50 µM	43.2 ± 15.7 µM	> 50 µM	> 50 µM	
CS(=O)(=O)c1ccc(-n2cc(C(=O)c3ccccc3O)cn2)cc1 [CK-50]	> 50 µM	> 50 µM	24.3 ± 4%	> 50 µM	48.2 ± 11.1 µM	> 50 µM	> 50 µM	
O=C(c1cnn(-c2ccccc2F)c1)c1ccccc1O [CK-43]	> 50 µM	> 50 µM	24.4 ± 2.1%	> 50 µM	46.2 ± 10.1 µM	> 50 µM	> 50 µM	
O=C(c1cnn(-c2ccc(Br)cc2)c1)c1ccccc1O [CK-28]	> 50 µM	> 50 µM	42.2 ± 12.1%	> 50 µM	> 50 µM	> 50 µM	> 50 µM	
COc1ccccc1-n1cc(C(=O)c2ccccc2O)cn1 [CK-46]	> 50 µM	42.9 ± 6.2 µM	5.4 ± 4.2%	> 50 µM	23.8 ± 4.7 µM	> 50 µM	49.4 ± 22.1 µM	
O=C(c1cnn(-c2ccccc2)c1)c1ccccc1O [CK-22]	48.1 ± 10.2 µM	28.3 ± 5.4 µM	-3.7 ± 7.8%	> 50 µM	32.1 ± 12.2 µM	27.6 ± 2.8 µM	43.5 ± 12.3 µM	
O=C(c1cnn(-c2ccc(F)cc2)c1)c1ccccc1O [CK-26]	47.2 ± 15.5 µM	21.5 ± 1.9 µM	10.7 ± 7.2%	43.2 ± 5.3 µM	23.4 ± 9.4 µM	31.2 ± 6.4 µM	29.4 ± 10.4 µM	
Cc1ccc(O)c(C(=O)c2cnn(-c3ccc(C(=O)O)cc3)c2)c1 [CK-54]	> 50 µM	> 50 µM	20.9 ± 3.8%	> 50 µM	> 50 µM	> 50 µM	> 50 µM	
